How the values were obtained:
PAF-receptor = target: T1, PAF-receptor (Oryctolagus cuniculus, UniProt G1TEI7); test: Inhibitor effect on PAF-receptor binding; conditions: specific binding of ^3H-PAF; rabbit platelet PAF-receptor membrane fraction; read-out: Inhibition of receptor binding (IC50 M)
T1 construct: is regarded as a PAF-receptor membrane fraction; from tissue; host or cells: rabbit blood platelets (membrane fraction from sucrose density layers)
Excerpt: Inhibitor effect on PAF-receptor binding
Blood samples were drawn from the heart of a rabbit. 1 part by volume of each sample was mixed immediately with 1/9 part of 0.77M solution of disodium ethylenediaminetetraacetate. After a similar procedure to that described in Experiment 2, a precipitated blood platelet sample was obtained. This blood platelet sample was washed, and, after repeated freezing and thawing for cellular breakdown, it was laid on top of double layers consisting of […] and 1.5M sucrose solutions. By centrifugation at 63,500×G, for 2 hours at 4° C., the fraction obtained from the interface between the 0.25M and 1.5M sucrose solutions was collected and is regarded as a PAF-receptor membrane fraction. A receptor binding experiment was conducted according to a method very similar to that reported by Hwang et al. [San-Bao Hwang et al.: J. Biol. Chem. 260, 15639-15645 (1985)]. The specific binding of ^3 H-PAF was measured using a Wattman GF/C filter. A test compound was dissolved in dimethyl sulfoxide and diluted 100 fold with a buffer solution containing 0.5% bovine serum albumin. Nine parts by weight of the solution, for a receptor binding experiment, was mixed with one part of the test compound solution prepared above. The percent inhibition of the specific binding was plotted for a log concentration of the test compound, and the 50% inhibitory concentration (IC50) was calculated from the linear line connecting all the plotted points.

PAF-induced hypotension = test: Inhibition of PAF-induced hypotension; format: in vivo, Wistar-Imamichi rats; conditions: Rattus norvegicus, iv, 1 min; anesthetized rats; l-C16:0 PAF 10 ng/kg i.v.; test compound i.v. cumulatively, 1 min before PAF; read-out: Inhibitory effect ID50
Method: Inhibition of PAF-induced hypotension
The test animals used were Wistar-Imamichi rats, each weighing from 350 to 450 g, anesthetized with Inactin (90 mg/kd, intraperitoneally).
Blood pressure was continuously measured throughout the experiment through a cannula inserted into the femoral artery. Each drug sample to be tested was intravenously injected through a cannula inserted into the femoral vein.
At first, l-C16:0 PAF was injected intravenously in amounts of 10 ng/kg at each injection at intervals of 5 minutes until the degree of the hypotensive response became constant. Then, each drug sample to be treated was intravenously injected. After one minute, the same dose of PAF was administered again. The drug sample was cumulatively administered. From its inhibition rate against the PAF-induced hypotensive effect, the 50% inhibitive dose (ID50) was determined, and is regarded as an index of PAF-antagonist activity. For administration, the PAF was dissolved in physiological saline solution containing 0.25% w/v of bovine serum albumin (BSA). The compounds under test were dissolved in dimethylformamide for use.
CV-3988 is disclosed in U.S. Pat. No. 4,408,052, and is structurally related to PAF itself.
In this Table, the compounds of the invention are identified by the number of the foregoing Example in which they were prepared.

[1] = system: blood platelet (PAF-induced aggregation); test: Inhibitory effect in vitro against PAF-induced blood platelet aggregation; format: cell-based; conditions: Oryctolagus cuniculus, 5 min; rabbit platelet rich plasma; l-C16:0 PAF final 10^-8 ~3×10^-8 M; 5 min observation
Method: Inhibitory effect in vitro against PAF-induced blood platelet aggregation
Blood samples were drawn from a rabbit and one part by volume of each sample was immediately mixed with 1/9 part of a 3.8% w/v aqueous solution of sodium citrate. The samples were centrifuged at 150×G at room temperature for 15 minutes to obtain a platelet rich plasma (PRP) fraction from the upper layer. The remains were further centrifuged at 1,000×G for 15 minutes to obtain a platelet poor plasma (PPP) fraction from the upper layer. The PRP and PPP fractions were mixed appropriately, to obtain a sample in which the final count of blood platelets was adjusted to be 6×10^5 per ul. According to the method reported by Born et al. [G. V. R. Born et al.: J. Physiol. 62, 67-68 (1962)], blood platelet aggregation was determined by an increase in light transmission measured using an aggregometer. 3 ul of a solution of the test compound in dimethyl sulfoxide were added to 272 ul of PRP, and, after 1 minute, 25 ul of a physiological saline solution containing l-c16:0 PAF (at a final concentration of 10^-8 ~3×10^-8 M) were added. […] At the end of this value and the value of PAF-induced aggregation which was observed when dimethyl sulfoxide only was used without the addition of any test compound. IC50 values were calculated from the dose-response curve.

T1 sequence (G1TEI7 1-342): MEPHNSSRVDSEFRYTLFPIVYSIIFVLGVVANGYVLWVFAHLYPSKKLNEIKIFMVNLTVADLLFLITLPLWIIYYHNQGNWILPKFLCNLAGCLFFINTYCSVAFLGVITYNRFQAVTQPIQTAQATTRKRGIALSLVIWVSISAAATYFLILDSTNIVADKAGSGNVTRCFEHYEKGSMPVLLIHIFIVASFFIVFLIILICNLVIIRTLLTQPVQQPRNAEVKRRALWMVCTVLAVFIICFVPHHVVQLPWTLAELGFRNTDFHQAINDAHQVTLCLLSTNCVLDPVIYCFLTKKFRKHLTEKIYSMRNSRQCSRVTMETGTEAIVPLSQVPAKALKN

Compound | IC50 (PAF-receptor) [µM] | IC50 [1] [µM] | ED50 (PAF-induced hypotension) [µg/kg]
COc1cc(C(=O)N2CCN(C(=O)C=C(c3cccc(C)c3)c3cccc(C)c3)CC2)cc(OC)c1OC [Example 56, 1-[3,3-Bis(3-Methylphenyl)acryloyl]-4-(3,4,5-trimethoxybenzoyl)piperazine] | 0.035 |  | 11
COc1cc(C(=O)N2CCN(C(=O)/C=C(/c3ccccc3)c3cccs3)CC2)cc(OC)c1OC [Example 5, 1-[(Z)-3-Phenyl-3-(2-thienyl)acryloyl]-4-(3,4,5-trimethoxybenzoyl)piperazin] | 0.047 | 0.26 | 54
COc1cc(C(=O)N2CCN(C(=O)C=C(c3cccc(Cl)c3)c3cccc(Cl)c3)CC2)cc(OC)c1OC [Example 41, 1-[3,3-Bis(3-chlorophenyl)acryloyl]-4-(3,4,5-trimethoxybenzoyl)piperazine] | 0.17 | 0.067 | 7.1
COc1ccc(/C(=C/C(=O)N2CCN(C(=O)c3cc(OC)c(OC)c(OC)c3)CC2)c2cccc(Cl)c2Cl)cc1 [Example 81, 1-[(Z)-3-(4-Methoxyphenyl)-3-(2,3-dichlorophenyl)acryloyl]-4-(3,4,5-trimethoxybenzoyl)piperazine] | 0.032 | 0.031 | 
COc1ccc(/C(=C/C(=O)N2CCN(C(=O)c3cc(OC)c(OC)c(OC)c3)CC2)c2cccc(C(F)(F)F)c2)cc1 [Example 75, 1-[(Z)-3-(4-Methoxyphenyl)-3-(3-trifluoromethylphenyl)acryloyl]-4-(3,4,5-trimethoxybenzoyl)piperazine] | 0.023 | 0.099 | 5.1
CCCOc1ccc(/C(=C/C(=O)N2CCN(C(=O)c3cc(OC)c(OC)c(OC)c3)CC2)c2ccc(Cl)c(Cl)c2)cc1 [Example 49, 1-[(Z)-3-(3,4-Dichlorophenyl)-3-(4-propoxyphenyl)acryloyl]-4-(3,4,5-trimethoxybenzoyl)piperazine] | 0.021 | 0.066 | 8
COc1ccc(/C(=C/C(=O)N2CCN(C(=O)c3cc(OC)c(OC)c(OC)c3)CC2)c2cc(Cl)cc(Cl)c2)cc1 [Example 77, 1-[(Z)-3-(4-Methoxyphenyl)-3-(3,5-dichlorophenyl)acryloyl]-4-(3,4,5-trimethoxybenzoyl)piperazine] | 0.014 | 0.026 | 3.7
CCCCCCCCCCCCCCCCCCNC(=O)OCC(COP(=O)([O-])OCC[n+]1ccsc1)OC (racemic) [CV-3988, reference compound] | 1.6 |  | 420
CCOc1ccc(/C(=C/C(=O)N2CCN(C(=O)c3cc(OC)c(OC)c(OC)c3)CC2)c2cc(Cl)cc(Cl)c2)cc1 [Example 85, 1-[(Z)-3-(4-Ethoxyphenyl)-3-(3,5-dichlorophenyl)acryloyl]-4-(3,4,5-trimethoxybenzoyl)piperazine] | 0.02 |  | 6.1
COc1ccc(/C(=C/C(=O)N2CCN(C(=O)c3cc(OC)c(OC)c(OC)c3)CC2)c2cccc(Cl)c2)cc1OC [Example 17, 1-[(Z)-3-(3-Chlorophenyl)-3-(3,4-dimethoxyphenyl)acryloyl]-4-(3,4,5-trimethoxybenzoyl)piperazine] |  | 0.063 | 8.3
COc1ccc(C(=CC(=O)N2CCN(C(=O)c3cc(OC)c(OC)c(OC)c3)CC2)c2ccc(OC)c(OC)c2)cc1OC [Example 28, 1-[Bis(3,4-dimethoxyphenyl)acryloyl]-4-(3,4,5-trimethoxybenzoyl)piperazine] |  | 0.23 | 39
COc1cccc(/C(=C\C(=O)N2CCN(C(=O)c3cc(OC)c(OC)c(OC)c3)CC2)c2cccc(Cl)c2)c1 [Example 44, 1-[(E)-3-(3-Chlorophenyl)-3-(3-methoxyphenyl)acryloyl]-4-(3,4,5-trimethoxybenzoyl)piperazine] | 0.015 |  | 7.5
COc1ccc(/C(=C/C(=O)N2CCN(C(=O)c3cc(OC)c(OC)c(OC)c3)CC2)c2cc(Cl)ccc2Cl)cc1 [Example 80, 1-[(Z)-3-(4-Methoxyphenyl)-3-(2,5-dichlorophenyl)acryloyl]-4-(3,4,5-trimethoxybenzoyl)piperazine] |  | 0.028 | 6.5
CCc1ccc(/C(=C/C(=O)N2CCN(C(=O)c3cc(OC)c(OC)c(OC)c3)CC2)c2cccc(Cl)c2)cc1 [Example 83, 1-[(Z)-3-(4-Ethylphenyl)-3-(3-chlorophenyl)acryloyl]-4-(3,4,5-trimethoxybenzoyl)piperazine] | 0.014 |  | 11
COc1ccc(/C(=C/C(=O)N2CCN(C(=O)c3cc(OC)c(OC)c(OC)c3)CC2)c2ccccc2Cl)cc1 [Example 42, 1-[(Z)-3-(2-chlorophenyl)-3-(4-methoxyphenyl)acryloyl]-4-(3,4,5-trimethoxybenzoyl)piperazine] | 0.02 |  | 5

More lines, main results first:

IC50 (PAF-receptor) [µM] | IC50 [1] [µM] | Compound | ED50 (PAF-induced hypotension) [µg/kg]
0.047 | 0.32 | COc1cc(C(=O)N2CCN(C(=O)C=C(c3ccccc3)c3ccccc3)CC2)cc(OC)c1OC [Example 1, 1-(3,3-Diphenylacryloyl)-4-(3,4,5-trimethoxybenzoyl)piperazine] | 57
0.013 |  | COc1cccc(/C(=C/C(=O)N2CCN(C(=O)c3cc(OC)c(OC)c(OC)c3)CC2)c2cccc(Cl)c2)c1 [Example 43, 1-[(Z)-3-(3-Chlorophenyl)-3-(3-methoxyphenyl)acryloyl]-4-(3,4,5-trimethoxybenzoyl)piperazine] | 4.4
0.016 | 0.039 | COc1ccc(/C(=C/C(=O)N2CCN(C(=O)c3cc(OC)c(OC)c(OC)c3)CC2)c2cccc(Cl)c2)cc1 [Example 45, 1-[(Z)-3-(3-Chlorophenyl)-3-(4-methoxyphenyl)acryloyl]-4-(3,4,5-trimethoxybenzoyl)piperazine] | 6.6
0.076 | 0.065 | COc1ccc(/C(=C/C(=O)N2CCN(C(=O)c3cc(OC)c(OC)c(OC)c3)CC2)c2cc(F)cc(F)c2)cc1 [Example 87, 1-[(Z)-3-(4-Methoxyphenyl)-3-(3,5-difluorophenyl)acryloyl]-4-(3,4,5-trimethoxybenzoyl)piperazine] | 11
0.026 |  | COc1cccc(/C(=C/C(=O)N2CCN(C(=O)c3cc(OC)c(OC)c(OC)c3)CC2)c2ccccc2Cl)c1 [Example 72, 1-[(Z)-3-(3-Methoxyphenyl)-3-(2-chlorophenyl)acryloyl]-4-(3,4,5-trimethoxybenzoyl)piperazine] | 9.7
 | 0.029 | COc1ccc(/C(=C/C(=O)N2CCN(C(=O)c3cc(OC)c(OC)c(OC)c3)CC2)c2ccc(Cl)cc2Cl)cc1 [Example 78, 1-[(Z)-3-(4-Methoxyphenyl)-3-(2,4-dichlorophenyl)acryloyl]-4-(3,4,5-trimethoxybenzoyl)piperazine] | 7.3
0.04 |  | COc1ccc(/C(=C/C(=O)N2CCN(C(=O)c3cc(OC)c(OC)c(OC)c3)CC2)c2cc(C(F)(F)F)cc(C(F)(F)F)c2)cc1 [Example 84, 1-[(Z)-3-(4-Methoxyphenyl)-3-(3,5-di-trifluoromethylphenyl)acryloyl]-4-(3,4,5-trimethoxybenzoyl)piperazine] | 8.6

Reference: patent publication US5192766A, “N-acryloylpiperazine derivatives, their preparation and their use as PAF antagonists” (Sankyo Company, Limited, priority 1989, dated 1993)
